molecular target: T1, Deoxynucleoside kinase (Drosophila melanogaster) (UniProt Q9XZT6); assay: Activity at Drosophila melanogaster dNK at 100 uM by spectrophotometry
T1 sequence (whole entry): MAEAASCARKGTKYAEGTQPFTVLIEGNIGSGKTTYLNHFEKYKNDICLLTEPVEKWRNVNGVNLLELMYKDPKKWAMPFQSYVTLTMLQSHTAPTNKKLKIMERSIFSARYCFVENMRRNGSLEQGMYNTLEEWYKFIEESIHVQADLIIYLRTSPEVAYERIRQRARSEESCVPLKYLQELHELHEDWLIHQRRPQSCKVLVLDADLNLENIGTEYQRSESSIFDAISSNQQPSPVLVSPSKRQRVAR

Going from Cc1cc2cn([C@H]3CC[C@@H](CO)O3)c(=O)nc2[nH]1 to Cc1cc2cn([C@H]3CC[C@@H](CO)O3)c(=O)nc2o1, the Activity rises from 2.6% to 30%.

Going from Cc1cc2cn([C@H]3C[C@H](O)[C@@H](CO)O3)c(=O)nc2[nH]1 to Cc1cc2cn([C@H]3C[C@H](F)[C@@H](CO)O3)c(=O)nc2o1, the Activity falls from 128% to 12%.

First: Cc1cc2cn([C@H]3C[C@H](N=[N+]=[N-])[C@@H](CO)O3)c(=O)nc2o1
Second: Cc1cc2cn([C@H]3C=C[C@@H](CO)O3)c(=O)nc2o1
The Activity of the first is lower: 12% for the first, 330% for the second.

molecular target: T1, Deoxynucleoside kinase (Drosophila melanogaster); assay: Activity at Drosophila melanogaster dNK at 10 uM by spectrophotometry

For Cc1cc2cn([C@H]3C[C@H](O)[C@@H](CO)O3)c(=O)nc2o1, the Activity was 43%.
